Values after ≈ are worked out from the molar mass of the structure shown. Values joined by “and” are separate entries in the source; they are usually repeats but may differ in a detail not shown here. Equal values may be shown once. Read-outs that look alike come from different tables or passages of the source.
How the values were obtained:
[1] = test system: passaged G. swidsinskii biofilm; experiment: MBEC on biofilms of passaged strains; type: cell-based, Gardnerella swidsinskii
Description: (§1) Gardnerella spp. (see figures for strain specification) was resuspended in brain heart infusion broth supplemented with 2% (w/v) gelatin, 0.5% yeast extract (w/v), 0.1% starch (w/v) and 0.25% glucose (w/v) (sBHIG). Passaged strains were resuspended in unbuffered NYCB supplemented with 1% glucose (w/v) (sNYCB). The OD600 was set to 0.1 (approx. 10^7-10^8 CFU/mL) and the cell suspension was diluted 1:10 in growth medium as input for biofilm formation. A total of 200 μL of the respective bacterial suspensions was added to 96-well flat bottom plates (tissue-culture treated, Sigma-Aldrich). The biofilms were grown under anaerobic conditions at 37° C. for 40 to 72 hours, depending on the isolate. Subsequently, the supernatant was removed, and the biofilm was treated with antimicrobials dissolved in sBHIG (at pH 5 for treatment with PM-477 (H2B10), and unbuffered for treatment with antibiotics) in 100 μL and incubated anaerobically at 37° C. for another 24 hours. After the treatment, the biofilms were washed twice with 200 μL 1x PBS and dissolved by vigorous pipetting (40x up and down). Serial dilutions of the dissolved cells were spotted on chocolate agar plates. The plates were incubated anaerobically for two to three days and the minimum biofilm eradication concentration (MBEC) of the endolysin or the antibiotics in use were calculated.
(§2) All MICs determined after 48 h of incubation.

[2] = test system: Gardnerella strains from vaginal swabs of BV patients; experiment: MIC and MBC99.5 on 18 in-house BV patient isolates; type: cell-based, Gardnerella spp.
Description: (§3) The minimum inhibitory concentration (MIC), which is a standard measure of the activity of antimicrobials, was determined according to the Clinical and Laboratory Standards Institute protocol (2018) Methods for Antimicrobial Susceptibility Testing of Anaerobic Bacteria (Carpenter et al., 2018). […] Controls for growth in the absence of antimicrobials were also included. OD600 was recorded by a microplate reader (Tecan, Grodig, Austria) after incubation at 37° C. for 48 h or, for some fast-growing strains, after incubation for 24 h. Absence of growth was defined as OD600≤0.14. […] MIC readout and MBC99.5 spotting were performed after 72 h incubation for H2B10B11.

passaged G. vaginalis = experiment: MIC on strains passaged with MDZ or MDZ-OH; type: cell-based, Gardnerella vaginalis; conditions: for MIC: Gardnerella vaginalis, 48 h; for MIC passaged: 48 h incubation
Description: as §3, with “H2B10B11. MBC99.5 is the minimum concentration of an antibacterial agent that results in bacterial death of all cells in suspension up to a defined limit of detection, resulting in killing of at least 99.5% of bacteria.” for “H2B10B11.”
(§4) The final volume of the reaction was 100 µL and the reactions were performed in triplicate in 384-well plates. The OD600 was measured using a microplate reader (Tecan, Grodig, Austria) to generate timepoint 0 h baseline values. The reactions were incubated anaerobically for 24 h, then the OD600 was measured again, and the MIC was measured as the lowest concentration with OD600<0.14. […] This process was repeated for a maximum of 25 rounds. In each round, the input CFU/mL was determined by quantitative plating.
(§5) The susceptibility of Gardnerella strains before and after 8 to 9-times passaging with sub-MIC concentrations of MZD or MDZ-OH is shown in Table 4 below. All MICs determined after 48 h of incubation.

G. swidsinskii biofilm = type: cell-based, Gardnerella swidsinskii
Description: as §1
Gardnerella dominated biofilms covering the human vaginal epithelial cells are now generally considered as a hallmark of BV. Thus, it was tested how effective antibiotics and PM-477 (H2B10) are in penetrating and killing in vitro pre-formed, 40-72 h old biofilms of various Gardnerella strains.

[3] = test system: G. vaginalis (ATCC 14018); experiment: Bactericidal effect in suspension by quantitative plating, wild type and MDZ-passaged; type: cell-based, Gardnerella vaginalis; conditions: for reduction of a suspension of 108 CFU/mL: 10 μg/mL, 1 h
Description: Bacterial suspensions (OD600 of 0.1, corresponding to approximately 10^7-10^8 CFU/mL) were prepared by scraping the cells from confluently grown agar plates and diluting them into NYCB+10% HS, pH 5.5. Reactions were performed in triplicate by mixing ten μl of endolysin (200 μg/mL) with 90 μL bacterial suspension in the wells of a 96-well plate. Ten UL MES buffer without the endolysin was used as a control. […] Tenfold dilution series (10^−1 to 10^−6) of the cell reaction mixtures were prepared in NYCB+10% HS and 2 μL of each dilution were spotted onto Choc agar plates. After anaerobic incubation at 37° C. for 48 h, colonies were counted, CFU/mL calculated, and the log10 reduction compared to MES buffer treated control was determined.
as §2

passaged G. piotii = experiment: MIC on strains passaged with MDZ-OH; type: cell-based, Gardnerella piotii
Description: as §3, with “H2B10B11. MBC99.5 is the minimum concentration of an antibacterial agent that results in bacterial death of all cells in suspension up to a defined limit of detection, resulting in killing of at least 99.5% of bacteria.” for “H2B10B11.”
The final volume of the reaction was 100 µL and the reactions were performed in triplicate in 384-well plates. The OD600 was measured using a microplate reader (Tecan, Grodig, Austria) to generate timepoint 0 h baseline values. […] In each round, the input CFU/mL was determined by quantitative plating.
as §5

[4] = test system: passaged G. vaginalis biofilm; experiment: MBEC on biofilms of passaged strains; type: cell-based, Gardnerella vaginalis
Description: as §1, §2

passaged G. swidsinskii = experiment: MIC on strains passaged with MDZ-OH; type: cell-based, Gardnerella swidsinskii; conditions: for MIC: Gardnerella swidsinskii, 48 h; for MIC passaged: 48 h incubation
Description: as §3, with “H2B10B11. MBC99.5 is the minimum concentration of an antibacterial agent that results in bacterial death of all cells in suspension up to a defined limit of detection, resulting in killing of at least 99.5% of bacteria.” for “H2B10B11.”
as §4, §5

[5] = test system: MDZ or MDZ-OH passaged Gardnerella strains grown as biofilm; experiment: MBEC on biofilms of the six passaged strains, summary; type: cell-based, Gardnerella spp.; conditions: for Susceptibility of MDZ-passaged strains grown as biofilm (FIG. 4): 72 h pre-formed biofilms treated for 24 h; for MBEC, range over passaged strains: six strains passaged on MDZ or MDZ-OH, pre-formed biofilms, 24 h treatment
Description: as §1

[6] = G. swidsinskii (GS 9838-1T) passaged with MDZ-OH
[7] = G. swidsinskii (UGent BV 7.1) passaged with MDZ-OH
[8] = ancestor G. swidsinskii GS 9838-1, pre-formed biofilm
[9] = ancestor G. swidsinskii UGent BV 7.1, pre-formed biofilm
[10] = G. vaginalis (ATCC 14018T) passaged with MDZ
[11] = G. vaginalis (UGent 09.07) passaged 8 times with MDZ-OH
[12] = G. vaginalis (UGent BV50) passaged with MDZ-OH

**Q.** How did the MBEC passaged [1, 6] turn out when Cc1ncc([N+](=O)[O-])n1CCO [MDZ, metronidazole] was run?
**A.** >2048 µg/mL

**Q.** What about the MBEC passaged [1, 7] of the same molecule?
**A.** >2048 µg/mL

**Q.** And the MIC ([2]; Gardnerella, 72 h, 18 in-house BV patient isolates, read-out: median MIC)?
**A.** 64 µg/mL (≈ 0.374 mM)

**Q.** And the MBC ([2]; Gardnerella, 18 in-house BV patient isolates, read-out: median MBC99.5)?
**A.** 1540 µg/mL (≈ 8.97 mM)

**Q.** What about the “number of resistant isolates (MIC>32 μg/mL)” value ([2]; panel of 18 isolates from vaginal swabs of BV patients) of the same molecule?
**A.** 10

**Q.** What about the MIC (passaged G. vaginalis; read-out: MIC passaged, G. vaginalis (ATCC 14018T) passaged with sub-MIC MDZ, 48 h incubation) of the same molecule?
**A.** > 512 µg/mL

**Q.** And the MIC (passaged G. vaginalis; read-out: MIC passaged, G. vaginalis (UGent 09.07) passaged 8 times with MDZ-OH, 48 h incubation)?
**A.** > 2050 µg/mL

**Q.** What about the MIC (passaged G. vaginalis; read-out: MIC passaged, G. vaginalis (UGent BV50) passaged with MDZ-OH, 48 h incubation) of the same molecule?
**A.** > 2050 µg/mL

**Q.** What about the MBEC (G. swidsinskii biofilm; [8]) of the same molecule?
**A.** 32 µg/mL

**Q.** And the MBEC (G. swidsinskii biofilm; [9])?
**A.** 32 µg/mL

**Q.** What about the “reduction compared to the buffer treated control” value ([3]; MDZ-passaged G. vaginalis (ATCC 14018), 2 mg/ml, 24 h) of the same molecule?
**A.** 2 log

**Q.** And the loss in viability ([3]; MDZ-passaged G. vaginalis (ATCC 14018), up to 2 mg/ml, 1 and 5 hours)?
**A.** without any loss in viability

**Q.** What about the MIC (passaged G. piotii; Gardnerella piotii, 48 h, read-out: MIC passaged) of the same molecule?
**A.** > 2050 µg/mL

**Q.** What about the MBEC passaged [4, 10] of the same molecule?
**A.** >2048 µg/mL

**Q.** What about the MBEC passaged [4, 11] of the same molecule?
**A.** >2048 µg/mL

**Q.** What about the MBEC passaged [4, 12] of the same molecule?
**A.** >2048 µg/mL

**Q.** What about the MIC (passaged G. swidsinskii; read-out: MIC passaged, G. swidsinskii (GS 9838-1T) passaged with MDZ-OH, 48 h incubation) of the same molecule?
**A.** > 512 µg/mL

**Q.** What about the MIC (passaged G. swidsinskii; read-out: MIC passaged, G. swidsinskii (UGent BV 7.1) passaged with MDZ-OH, 48 h incubation) of the same molecule?
**A.** > 2050 µg/mL

**Q.** What about the “Susceptibility of MDZ-passaged strains grown as biofilm (FIG. 4)” value [5] of the same molecule?
**A.** resistant

**Q.** And the “MBEC, range over passaged strains” value [5]?
**A.** > 2048 µg/mL

B1: PM-477: genetically engineered recombinant Gardnerella-specific endolysin, amino acid sequence SEQ ID NO: 1, His-tag cleaved off (protein)
chain: SKRGIDVSEWQGDIDFNAVKASGVEFVIIRAGYGIGCKDKWFEQNYRKAKTCGLDVGAYWYSYANSGFEAAEEAQSCVNMLSGKSFEYPVYFDLEEKSQLNRGRAFCDSLITGFCNKLESCGYYAGFYTSLSTANNLVSAHVRNRYALWIAQWNTHCSYQGSYGLWQYSSSGSVPGVAGRVDMDYAYVDYPSIIKNVGLNGYKNGGSYTAPQISSIDEVAREVINGDWGNGNERKQRLTSAGYDYASVQNKVNELLGVKAYRKSVDELAREVIRGTWGNGSTRKQRLTQAGYDYNAVQKRVNELL
modifications: His-tag cleaved off; H2B10
**Q.** B1 was tested. Which MBEC passaged [1, 6] did it give?
**A.** 2 µg/mL

**Q.** And the MBEC passaged [1, 7]?
**A.** 2 µg/mL

**Q.** What about the MIC passaged (passaged G. vaginalis; G. vaginalis (ATCC 14018T) passaged with sub-MIC MDZ) of the same molecule?
**A.** 0.13 µg/mL

**Q.** And the MIC passaged (passaged G. vaginalis; [11])?
**A.** 0.25 µg/mL

**Q.** What about the MIC passaged (passaged G. vaginalis; [12]) of the same molecule?
**A.** 0.25 µg/mL

**Q.** And the MBEC (G. swidsinskii biofilm; [8])?
**A.** <2 µg/mL

**Q.** And the MBEC (G. swidsinskii biofilm; [9])?
**A.** 32 µg/mL

**Q.** What about the “reduction of a suspension of 108 CFU/mL” value ([3]; MDZ-passaged G. vaginalis (ATCC 14018)) of the same molecule?
**A.** 2.8 log units

**Q.** And the “reduction of a suspension of 108 CFU/mL” value ([3]; ancestral G. vaginalis (ATCC 14018))?
**A.** 3.0 log units

**Q.** What about the MIC passaged (passaged G. piotii; G. piotii (UGent 18.01T) passaged with MDZ-OH, 48 h incubation) of the same molecule?
**A.** 2 µg/mL

**Q.** What about the MBEC passaged [4, 10] of the same molecule?
**A.** 2 to 8 µg/mL

**Q.** What about the MBEC passaged [4, 11] of the same molecule?
**A.** 2 to 4 µg/mL

**Q.** And the MBEC passaged [4, 12]?
**A.** 1 to 8 µg/mL

**Q.** What about the MIC passaged (passaged G. swidsinskii; [6]) of the same molecule?
**A.** 0.06 µg/mL

**Q.** And the MIC passaged (passaged G. swidsinskii; [7])?
**A.** 0.06 µg/mL

**Q.** What about the “Susceptibility of MDZ-passaged strains grown as biofilm (FIG. 4)” value [5] of the same molecule?
**A.** susceptible

**Q.** And the “MBEC, range over passaged strains” value ([5]; listed as PM-477 (H2B10))?
**A.** 1 to 8 µg/mL and 1 to 4 µg/mL

Source: US20250144186A1, “NOVEL THERAPEUTIC USES OF GARDNERELLA ENDOLYSINS” (priority 2022, published 2025)
